{"source": "patent US20180064687A1", "about": "“PHARMACEUTICAL COMPOSITION FOR THE PREVENTION AND TREATMENT OF DISEASES ASSOCIATED WITH ELEVATED INDUCIBLE NITRIC OXIDE SYNTHASE” (AKCIJU SABIEDRIBA \"OLAINFARM', priority 2015, published 2018)", "key": {"[1]": {"test_system": "formalin-induced nociceptive responses", "details": "cited from earlier work; for nociceptive responses to formalin-produced peripheral neuropathy: systemic and intrathecal administration, mice and rats"}, "iNOS gene expression": {"test_system": "iNOS gene expression", "test": "LPS-induced iNOS gene overexpression in brain tissue, septic shock model (quantitative RT-PCR)", "format": "in vivo", "details": "mice; 50 mg/kg injected simultaneously with LPS 20 mg/kg i.p.; tissue sampled 6 h after; compared with LPS group", "procedure": "(§1) Male ICR mice weighing 25-30 g were obtained from the Laboratory of Experimental Animals, Riga Stradins University (Riga, Latvia), and housed under standard conditions (21-23° C., relative humidity 65%±10%, 12 h light-dark cycle) with unlimited access to standard food (R70 diet, Lactamin AB, Sweden) and water. The experimental procedures were performed in accordance with the guidelines reported in EU Directive 2010/63/EU and in accordance with local laws and policies; all of the procedures were approved by the Latvian Animal Protection Ethical Committee of Food and Veterinary Service in Riga, Latvia. To eliminate systematic differences between the treatment groups, the animals were randomly assigned to their respective experimental groups (12 animals in each group for formalin test and 6 animals in each group for LPS test). To avoid subjective factors in the rating process, all experimental procedures were performed in a blinded fashion.\nThe iNOS gene expression was stimulated by a single intraperitoneal (i.p.) injection of LPS at a dose of 20 mg/kg 6 h before the tissue sampling. Control animals received i.p. injection of saline (0.9% NaCl). […]\nBrain tissue after sampling were immediately frozen in liquid nitrogen and stored at −80° C. […] Samples were diluted with water at v/v ratio of 1:20 and the quality and quantity of extracted total RNA were examined by measuring the absorbance at 230, 260 and 280 nm with a μQuant™ (BioTek) spectrophotometer. […] Quantitative RT-PCR analysis for iNOS was performed by mixing synthesized cDNA (diluted with water at v/v ratio of 1:10), appropriate primers, and SYBR® Green Master Mix (Applied Biosystems™, USA) and run in the Applied Biosystems Prism 7500 according to the manufacturer's protocol. The transcript levels for the constitutive housekeeping gene product β-actin were quantitatively measured for each sample, and PCR data were reported as the number of transcripts per number of β-actin mRNA molecules."}, "[2]": {"test_system": "formalin-induced paw licking", "test": "Formalin-induced paw licking test (formalin-induced peripheral neuropathy)", "format": "in vivo", "details": "mice, pre-treatment 50 mg/kg", "procedure": "as §1\nFormalin-induced licking paw test was performed as described previously by Zvejniece et al 2006 (Zvejniece L., Muceniece R., Krigere L., Dambrova M., Klusa V. Z. Pharmacol. Biochem. Behav. 2006, 85 (2),287-91). Briefly, mice were gently restrained and 30 μl of formalin solution (1.5% in saline) was injected s.c. into the plantar surface of the right hind paw, using a microsyringe with a 27-gauge needle. Each mouse was then placed in an individual clear Plexiglas observation chamber (30×20×30 cm) and the total licking time of hind paw of each mouse was registered and quantified in subsequent 5-minute intervals for 50 minutes. The recording of licking time started immediately (first phase) and lasted for 5 min. The late phase (second phase) started about 15-20 min after formalin injection and lasted up to 35 min."}, "LPS-induced hypothermia": {"test_system": "LPS-induced hypothermia", "test": "LPS-induced hypothermia (rectal temperature), septic shock model", "format": "in vivo", "details": "mice; 50 mg/kg i.p. simultaneously with LPS 20 mg/kg; 6 h after injection", "procedure": "as §1\nThe hypothermia was induced by an i.p. injection of LPS at a dose of 20 mg/kg. Control animals received i.p. injection of saline (0.9% NaCl). […] The rectal temperature of animals was measured using a thermometer (Thermalert TH-5, USA) at 5 min before LPS or saline injection and 6 hours after injection."}, "[3]": {"details": "in vivo; cited from earlier work"}, "[4]": {"details": "i.p. administration; cited from earlier work"}, "NOS": {"test_system": "NOS", "details": "patients with septic shock, cited from earlier work"}, "[5]": {"details": "phase II, compared to saline treated group"}}, "note": "“Also recorded” adds a separate entry of the source. Structures can show the parent of a compound that is named as a salt.", "data": [{"smiles": "N#Cc1ccc(C(=O)N2CCC3(CC2)N=C(N)c2c(F)ccc(F)c2N3)cn1", "note": "[AR-C102222]", "values": [{"measurement": "peripheral nociception in formalin-induced paw licking test II phase", "setting": "[1]", "value": "reduce peripheral nociception"}]}, {"smiles": "N=C(N)NN", "note": "[aminoguanidine hydrochloride]", "values": [{"measurement": "peripheral nociception in formalin-induced paw licking test II phase", "setting": "[1]", "value": "reduce peripheral nociception"}]}, {"smiles": "NC(=O)CN1CC(c2ccccc2)CC1=O", "note": "[(4R,S)-2-(4-phenyl-2-oxopyrrolidin-1-yl)acetamide]", "values": [{"measurement": "LPS-induced iNOS gene expression in brain tissue", "setting": "iNOS gene expression", "value": "tendency to reduce LPS action; also recorded: did not reduce"}, {"measurement": "paw-licking time in I phase", "setting": "[2]; phase I, compared to saline treated group", "value": "did not reduce; also recorded: almost no effect"}, {"measurement": "paw licking response time in II phase", "setting": "[2]; [5]", "value": "did not reduce; also recorded: almost no effect"}]}, {"smiles": "NCC1(CC(=O)O)CCCCC1", "note": "[gabapentin]", "values": [{"measurement": "peripheral nociception in formalin-induced paw licking test II phase", "setting": "[1]", "value": "anti-nociceptive activity"}]}, {"smiles": "CC(C)C[C@H](CN)CC(=O)O", "note": "[pregabalin]", "values": [{"measurement": "peripheral nociception in formalin-induced paw licking test II phase", "setting": "[1]", "value": "anti-nociceptive activity"}]}, {"smiles": "NC(=O)CN1C[C@@H](c2ccccc2)CC1=O", "note": "[(4R)-2-(4-phenyl-2-oxopyrrolidin-1-yl)acetamide]", "values": [{"measurement": "LPS-induced hypothermia (rectal temperature)", "setting": "LPS-induced hypothermia", "value": "significantly inhibited"}, {"measurement": "LPS-induced iNOS gene expression in brain tissue", "setting": "iNOS gene expression", "value": "highly effective; also recorded: significantly reduced"}, {"measurement": "excretion from body", "setting": "[3]", "value": "totally excreted from body in unmetabolized form"}, {"measurement": "reduction of the paw licking behavior in phase II", "setting": "[2]; phase II", "value": 46, "unit": "%"}, {"measurement": "paw licking response time in II phase", "setting": "[2]; [5]", "value": "significant inhibition"}, {"measurement": "dose up to which no side effects on the body system are caused", "setting": "[4]", "value": "≤ 250", "unit": "mg/kg"}]}, {"smiles": "COC(=O)[C@@H](N)CCCNC(=N)N[N+](=O)[O-]", "note": "[L-NAME, Nω-nitro-L-arginine methyl ester]", "values": [{"measurement": "results of the phase II trial in septic shock", "setting": "NOS; placebo-controlled double-blind study", "value": "promising"}, {"measurement": "mortality in the treatment group, phase III trial", "setting": "NOS; trial terminated prematurely", "value": "increase in mortality"}, {"measurement": "nociceptive responses to formalin-produced peripheral neuropathy", "setting": "[1]", "value": "reduces nociceptive responses"}]}, {"smiles": "O=[N+]([O-])c1cccc2cn[nH]c12", "note": "[7-nitroindazole]", "values": [{"measurement": "nociceptive responses to formalin-produced peripheral neuropathy", "setting": "[1]", "value": "reduces nociceptive responses"}]}, {"smiles": "CN(C)CCC=C1c2ccccc2CCc2ccccc21", "note": "[amitriptyline]", "values": [{"measurement": "peripheral nociception in formalin-induced paw licking test II phase", "setting": "[1]", "value": "anti-nociceptive activity"}]}, {"smiles": "NC(=O)CN1C[C@H](c2ccccc2)CC1=O", "note": "[(4S)-2-(4-phenyl-2-oxopyrrolidin-1-yl)acetamide]", "values": [{"measurement": "LPS-induced iNOS gene expression in brain tissue", "setting": "iNOS gene expression", "value": "absolutely inactive; also recorded: did not reduce"}]}]}
